Structures can show the parent of a compound that is named as a salt.

One test has as its system hPSC-SCs.
Conditions: not given
Take `CN(C)C(=O)Oc1cccc([N+](C)(C)C)c1` [Neostigmine bromide]: the z.score.t stood at 1.018.
On the same count and under the same terms, with `CNCCC(Oc1ccccc1OC)c1ccccc1` (stereo not drawn) [Nisoxetine hydrochloride] the figure was 0.4318.
The same measure, in the same setting: the result for `Cl.Cl.c1ccc2c3c([nH]c2c1)C1C2CCC(C4CCCNC42)N1CC3` (stereo not drawn) [Nitrarine dihydrochloride] reads 0.3022; that for `CCN(CC)CCOC(=O)C1(c2ccc([N+](=O)[O-])cc2)CCCC1.Cl` [Nitrocaramiphen hydrochloride], 1.242; that for `C[C@@H]1[C@H](O)[C@@H](C)/C=C/C=C/CC/C=C/C=C/C=C/C=C/C(O[C@H]2O[C@H](C)[C@@H](O)[C@H](N)[C@@H]2O)CC2O[C@](O)(CC(O)C(O)CCC(O)CC(O)CC(O)CC(=O)O[C@H]1C)CC(O)C2C(=O)O` (stereo partly drawn) [Nystatine], 1.992.
Same read-out and setting: the result for `CCCCc1ccc2[nH]c(NC(=O)OC)nc2c1` [Parbendazole] reads −1.543.

Staying with this test, now noted: HTS viability of hPSC-SCs in the presence of 30 mM glucose; Prestwick library; Table S4.
For the compound `NC[C@@H]1O[C@H](O[C@H]2[C@@H](O)[C@H](O[C@@H]3[C@@H](O)[C@H](N)C[C@H](N)[C@H]3O[C@H]3O[C@H](CN)[C@@H](O)[C@H](O)[C@H]3N)O[C@@H]2CO)[C@H](N)[C@@H](O)[C@@H]1O.O=S(=O)(O)O` [Neomycin sulfate], the z.score.t is given as −0.6492.
Take `O=C(O)c1cccnc1` [Niacin]: the z.score.t came to 0.4105.
The same measure, in the same setting: the result for `O=C(CCNNC(=O)c1ccncc1)NCc1ccccc1` [Nialamide] reads −0.7018; that for `COC(=O)C1=C(C)NC(C)=C(C(=O)OCCN(C)Cc2ccccc2)C1c1cccc([N+](=O)[O-])c1` (stereo not drawn) [Nicardipine hydrochloride], 0.2189; that for `CO[C@]12C[C@@H](COC(=O)c3cncc(Br)c3)CN(C)[C@@H]1Cc1cn(C)c3cccc2c13` [Nicergoline], −0.2131.
On to `O=C(Nc1ccc([N+](=O)[O-])cc1Cl)c1cc(Cl)ccc1O` [Niclosamide], for which the z.score.t is listed as −1.794.
Consider `O=C(NCCO[N+](=O)[O-])c1cccnc1` [Nicorandil], for which the z.score.t is reported as 0.599.
Turning to `Cc1c(NC(=O)c2cccnc2)c(=O)n(-c2ccccc2)n1C` [Nifenazone], the z.score.t was −0.2425.
Regarding `O=C(O)c1cccnc1Nc1cccc(C(F)(F)F)c1` [Niflumic acid], the z.score.t came out at 0.5856.
On the same count and under the same terms, the result for `O=C(N/N=C/c1ccc([N+](=O)[O-])o1)c1ccc(O)cc1` [Nifuroxazide] reads 0.8023; that for `CC1CS(=O)(=O)CCN1/N=C/c1ccc([N+](=O)[O-])o1` (stereo not drawn) [Nifurtimox], 1.522; that for `CC1(C)NC(=O)N(c2ccc([N+](=O)[O-])c(C(F)(F)F)c2)C1=O` [Nilutamide], 0.1244.
Consider `CS(=O)(=O)Nc1ccc([N+](=O)[O-])cc1Oc1ccccc1` [Nimesulide], for which the z.score.t was determined as 2.111.
For the compound `COCCOC(=O)C1=C(C)NC(C)=C(C(=O)OC(C)C)C1c1cccc([N+](=O)[O-])c1` (stereo not drawn) [Nimodipine], the z.score.t is −1.245.
`O=C1NCCN1c1ncc([N+](=O)[O-])s1` [Niridazole]: the z.score.t is recorded as 2.422.
On the same count and under the same terms, with `COC(=O)C1=C(C)NC(C)=C(C(=O)OCC(C)C)C1c1ccccc1[N+](=O)[O-]` (stereo not drawn) [Nisoldipine] the figure was −0.5992; with `CCOC(=O)C1=C(C)NC(C)=C(C(=O)OC)C1c1cccc([N+](=O)[O-])c1` (stereo not drawn) [Nitrendipine], 0.6177; with `NC(=O)N/N=C/c1ccc([N+](=O)[O-])o1` [Nitrofural], 0.767.
For the compound `O=C1CN(/N=C/c2ccc([N+](=O)[O-])o2)C(=O)N1` [Nitrofurantoin], the z.score.t was −0.03449.
Consider `CNC(=C[N+](=O)[O-])NCCSCc1csc(CN(C)C)n1` [Nizatidine], for which the z.score.t is listed as −0.0788.
Take `COC(=O)Nc1nc2ccc(C(=O)c3cccs3)cc2[nH]1` [Nocodazole]: the z.score.t is −1.329.
On the same count and under the same terms, with `CC(=O)O[C@]1(C(C)=O)CC[C@H]2[C@@H]3C=C(C)C4=CC(=O)CC[C@@H]4[C@H]3CC[C@@]21C` [Nomegestrol acetate] the figure was 0.7296; with `CN1Cc2c(N)cccc2C(c2ccccc2)C1` (stereo not drawn) [Nomifensine maleate], −0.004573; with `CNCCC=C1c2ccccc2C=Cc2ccccc21` [Norcyclobenzaprine], 0.465.
For `C#C[C@]1(O)CC[C@H]2[C@@H]3CCC4=CC(=O)CC[C@@H]4[C@H]3CC[C@@]21C` [Norethindrone], the z.score.t turned out to be 0.2479.
For `C#C[C@]1(O)CC[C@H]2[C@@H]3CCC4=C(CCC(=O)C4)[C@H]3CC[C@@]21C` [Norethynodrel], the z.score.t came to 1.857.
Turning to `CCn1cc(C(=O)O)c(=O)c2cc(F)c(N3CCNCC3)cc21` [Norfloxacin], the z.score.t is reported as 0.3922.
Regarding `C#C[C@]1(O)CC[C@H]2[C@@H]3CCC4=CC(=O)CC[C@@H]4[C@H]3CC[C@@]21CC` [Norgestrel-(−)-D], the z.score.t is reported as 0.0116.
Take `CNCCC=C1c2ccccc2CCc2ccccc21` [Nortriptyline hydrochloride]: the z.score.t is reported as −1.753.
Same read-out and setting: the result for `COc1ccc2c(c1OC)C(=O)O[C@@H]2[C@H]1c2c(cc3c(c2OC)OCO3)CCN1C` [Noscapine] reads −0.3731; that for `CO[C@@H]1[C@@H](OC(N)=O)[C@@H](O)[C@H](Oc2ccc3c(O)c(NC(=O)c4ccc(O)c(CC=C(C)C)c4)c(=O)oc3c2C)OC1(C)C` [Novobiocin sodium salt], 1.481.
Turning to `CC1COc2c(N3CCN(C)CC3)c(F)cc3c(=O)c(C(=O)O)cn1c23` (stereo not drawn) [Ofloxacin], the z.score.t is listed as −1.243.
On the same count and under the same terms, the result for `CO[C@H]1C[C@H](O[C@H]2[C@H](C)[C@@H](O[C@@H]3O[C@H](C)C[C@H](N(C)C)[C@H]3O)[C@@H](C)C[C@@]3(CO3)C(=O)[C@H](C)[C@@H](O)[C@@H](C)[C@@H](C)OC(=O)[C@@H]2C)O[C@@H](C)[C@@H]1O` [Oleandomycin phosphate] reads −0.5417; that for `COc1ccc2[nH]c([S+]([O-])Cc3ncc(C)c(OC)c3C)nc2c1` (stereo not drawn) [Omeprazole], 0.1344.
As to `Cc1nccn1CC1CCc2c(c3ccccc3n2C)C1=O` (stereo not drawn) [Ondansetron Hydrochloride], the z.score.t is recorded as −0.3173.
`Cc1ncc([N+](=O)[O-])n1CC(O)CCl` (stereo not drawn) [Ornidazole]: the z.score.t is reported as 0.1446.
On the same count and under the same terms, with `Cc1ccccc1C(OCCN(C)C)c1ccccc1` (stereo not drawn) [Orphenadrine hydrochloride] the figure was −1.003; with `CCN(CC)CCc1nc(-c2ccccc2)no1.O=C(O)CC(O)(CC(=O)O)C(=O)O` [Oxalamine citrate salt], −0.3023; with `CN1CCCN=C1/C=C/c1cccc(O)c1.O=C(O)c1cc2ccccc2c(Cc2c(O)c(C(=O)O)cc3ccccc23)c1O` [Oxantel pamoate], −0.3936.
As for `O=C(O)CCc1nc(-c2ccccc2)c(-c2ccccc2)o1` [Oxaprozin], the z.score.t amounted to 0.0827.
As to `CN(C(=O)CN(CCO)CC(=O)N(C)C(C)(C)Cc1ccccc1)C(C)(C)Cc1ccccc1` [Oxethazaine], the z.score.t is −1.253.
Same read-out and setting: with `CCn1cc(C(=O)O)c(=O)c2cc3c(cc21)OCO3` [Oxolinic acid] the figure was 1.315; with `C=CCOc1ccccc1OCC(O)CNC(C)C` (stereo not drawn) [Oxprenolol hydrochloride], −1.046.
`COc1ccc(C(=O)c2ccccc2)c(O)c1` [Oxybenzone]: the z.score.t is reported as −0.6594.
Turning to `CCN(CC)CC#CCOC(=O)C(O)(c1ccccc1)C1CCCCC1` (stereo not drawn) [Oxybutynin chloride], the z.score.t was −0.7013.
As for `Cc1cc(C(C)(C)C)c(O)c(C)c1CC1=NCCN1` [Oxymetazoline hydrochloride], the z.score.t is −0.7524.
With `CCCCC1C(=O)N(c2ccccc2)N(c2ccc(O)cc2)C1=O` (stereo not drawn) [Oxyphenbutazone], the z.score.t is −0.8111.
On the same count and under the same terms, with `CN(C)[C@@H]1C(O)=C(C(N)=O)C(=O)[C@@]2(O)C(O)=C3C(=O)c4c(O)cccc4[C@@](C)(O)[C@H]3[C@H](O)[C@@H]12` [Oxytetracycline dihydrate] the figure was −0.09426; with `O=C(O)/C=C/c1ccc(Cn2ccnc2)cc1` [Ozagrel hydrochloride], −1.148.
In the case of `CC(=O)O[C@H]1C(=O)[C@@]2(C)[C@H]([C@H](OC(=O)c3ccccc3)[C@]3(O)C[C@H](OC(=O)[C@H](O)[C@@H](NC(=O)c4ccccc4)c4ccccc4)C(C)=C1C3(C)C)[C@]1(OC(C)=O)CO[C@@H]1C[C@@H]2O` [Paclitaxel], the z.score.t was −1.418.
Same read-out and setting: with `COc1cc2c(cc1OC)-c1cc3ccc(OC)c(OC)c3c[n+]1CC2` [Palmatine chloride] the figure was 0.5822; with `CC(=O)O[C@H]1C[C@@H]2CC[C@@H]3[C@H](CC[C@@]4(C)[C@H]3C[C@H]([N+]3(C)CCCCC3)[C@@H]4OC(C)=O)[C@@]2(C)C[C@@H]1[N+]1(C)CCCCC1` [Pancuronium bromide], 0.1543; with `CC(C)(CO)[C@@H](O)C(=O)NCCCO` [Panthenol (D)], 0.6517.
Regarding `CC(C)(CO)[C@@H](O)C(=O)NCCC(=O)O` [Pantothenic acid calcium salt monohydrate], the z.score.t is −0.9817.
On to `COc1ccc(Cc2nccc3cc(OC)c(OC)cc23)cc1OC` [Papaverine hydrochloride], for which the z.score.t turned out to be 0.1556.
For the compound `C#CCN(C)Cc1ccccc1` [Pargyline hydrochloride], the z.score.t is recorded as 0.7789.
With `NC[C@@H]1O[C@H](O[C@H]2[C@@H](O)[C@H](O[C@@H]3[C@@H](O)[C@H](N)C[C@H](N)[C@H]3O[C@H]3O[C@H](CO)[C@@H](O)[C@H](O)[C@H]3N)O[C@@H]2CO)[C@H](N)[C@@H](O)[C@@H]1O` [Paromomycin sulfate], the z.score.t was −1.074.
The same measure, in the same setting: the result for `Fc1ccc([C@@H]2CCNC[C@H]2COc2ccc3c(c2)OCO3)cc1` [Paroxetine Hydrochloride] reads −1.138.
Same read-out and setting: the result for `CN1C(C)(C)CCCC1(C)C` [Pempidine tartrate] reads −0.5583; that for `CC(C)(C)NC[C@H](O)COc1ccccc1C1CCCC1` [Penbutolol sulfate], −0.9376.
